# Test results taken from patent US8946211B2, “Fused aminodihydrothiazine derivatives” (Eisai R&D Management Co., Ltd., priority 2008, dated 2015).
# Where two headings read alike, the source gives them in different places.
# Test system: Aβ42 production
# Test: Quantification of Aβ peptide in culture of neurons from rat fetus brain (Aβ ELISA)
# Assay type: cell-based
# Details: rat primary cortical neuronal culture (embryonic day 18 Wistar rats), medium collected three days after addition of the compound, Aβx-42 ELISA, read-out: Aβ42 production reducing effect IC50
# Experimental: Quantification of Aβ Peptide in Culture of Neurons from Rat Fetus Brain
# (1) Rat Primary Neuronal Culture
# Primary neuronal cultures were prepared from the cerebral cortex of embryonic day 18 Wistar rats (Charles River Japan, Yokohama, Japan). Specifically, the embryos were aseptically removed from pregnant rats under ether anesthesia. The brain was isolated from the embryo and immersed in an ice-cold L-15 medium (such as Invitrogen Corp. Cat #11415-064, Carlsbad, Calif., USA, or SIGMA L1518). The cerebral cortex was collected from the isolated brain under a stereoscopic microscope. The cerebral cortex fragments collected were enzymatically treated in an enzyme solution containing 0.25% trypsin (Invitrogen Corp. Cat #15050-065, Carlsbad, Calif., USA) and 0.01% DNase (Sigma D5025, St. Louis, Mo., USA) at 37° C. for 30 minutes to disperse the cells. Here, the enzymatic reaction was stopped by adding inactivated horse serum to the solution. The enzymatically treated solution was centrifuged at 1,500 rpm for five minutes to remove the supernatant. 5 to 10 mL of a medium was added to the resulting cell mass. Neurobasal medium (Invitrogen Corp. Cat #21103-049, Carlsbad, Calif., USA) supplemented with 2% B27 supplement (Invitrogen Corp. Cat #17504-044, Carlsbad, Calif., USA), 25 μM 2-mercaptoethanol (2-ME, WAKO Cat #139-06861, Osaka, Japan), 0.5 mM L-glutamine (Invitrogen Corp. Cat #25030-081, Carlsbad, Calif., USA), and Antibiotics-Antimycotics (Invitrogen Corp. Cat #15240-062, Carlsbad, Calif., USA) was used as the medium (Neurobasal/B27/2-ME). However, the above Neurobasal medium not supplemented with 2-ME (Neurobasal/B27) was used for the assay. The cells were redispersed by mild pipetting of the cell mass to which the medium was added. The cell dispersion was filtered through a 40-μm nylon mesh (Cell Strainer, Cat #35-2340, Becton Dickinson Labware, Franklin Lakes, N.J., USA) to remove the remaining cell mass, and thus a neuronal cell suspension was obtained. The neuronal cell suspension was diluted with the medium and then plated in a volume of 100 μL/well at an initial cell density of 5×10^5 cells/cm^2 in a 96-well polystyrene culture plate pre-coated with poly-L or D-lysine (Falcon Cat #35-3075, Becton Dickinson Labware, Franklin Lakes, N.J., USA coated with poly-L-lysine using the method shown below, or BIOCOAT™ cell environments Poly-D-lysine cell ware 96-well plate, Cat #35-6461, Becton Dickinson Labware, Franklin Lakes, N.J., USA). Poly-L-lysine coating was carried out as follows. 100 μg/mL of a poly-L-lysine (SIGMA P2636, St. Louis, Mo., USA) solution was aseptically prepared with a 0.15 M borate buffer (pH 8.5). […]
Compound,"IC50 (Neuron, 72 h) [µM]",IC50 [µM]
"NC1=N[C@@]2(c3cc(NC(=O)c4ccc(Cl)cn4)ccc3F)CCCCC[C@H]2CS1 (single isomer, unassigned) [Example 248, N-[3-((4aR*,9aS*)-2-amino-4,4a,5,6,7,8,9,9a-octahydrocyclohepta[d][1,3]thiazin-9a-yl)-4-fluorophenyl]-5-chloropyridine-2-carboxamide]",0.016,–
NC1=N[C@@]2(c3cc(NC(=O)c4ncccc4F)ccc3F)CCCCC[C@H]2CS1 [Example 251],–,0.12
NC1=N[C@@]2(c3cc(NC(=O)c4ncccc4C(F)(F)F)ccc3F)CCCCC[C@H]2CS1 [Example 252],–,0.187
NC1=N[C@@]2(c3cc(NC(=O)c4ncccc4Br)ccc3F)CCCCC[C@H]2CS1 [Example 253],–,0.171
